Key:
Experiment in all cases: relative viability (nuclei count vs DMSO), 5 days (fraction); higher = more cells survive
Avagacestat + Trametinib = compound: NC(=O)[C@@H](CCC(F)(F)F)N(Cc1ccc(-c2ncon2)cc1F)S(=O)(=O)c1ccc(Cl)cc1 [Avagacestat] + CC(=O)Nc1cccc(-n2c(=O)n(C3CC3)c(=O)c3c(Nc4ccc(I)cc4F)n(C)c(=O)c(C)c32)c1 [Trametinib] (partner 0.02 µM)
Procedure, shortened: (§1)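 Lung cancer cell lines in 1536-well plates were dosed by pin tool the day after seeding, either with one drug alone or with a fixed anchor-drug dose plus five library-drug doses (not always all listed) in √10 steps. After 5 days, cells were fixed and their nuclei stained in one step (final 0.05% Triton X-100, 1% formaldehyde, 1 ug/ml Hoechst), then counted on 4× images. Relative viability is the nuclei count in treated wells divided by that in vehicle wells. Values are medians of duplicate plates.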

Avagacestat + Lapatinib = compound: NC(=O)[C@@H](CCC(F)(F)F)N(Cc1ccc(-c2ncon2)cc1F)S(=O)(=O)c1ccc(Cl)cc1 [Avagacestat] + CS(=O)(=O)CCNCc1ccc(-c2ccc3ncnc(Nc4ccc(OCc5cccc(F)c5)c(Cl)c4)c3c2)o1 [Lapatinib] (partner 2 µM)
Procedure, shortened: as §1

Avagacestat + Phenformin = compound: NC(=O)[C@@H](CCC(F)(F)F)N(Cc1ccc(-c2ncon2)cc1F)S(=O)(=O)c1ccc(Cl)cc1 [Avagacestat] + N=C(N)NC(=N)NCCc1ccccc1 [Phenformin] (partner 250 µM)
Procedure, shortened: as §1

Avagacestat + Olaparib = compound: NC(=O)[C@@H](CCC(F)(F)F)N(Cc1ccc(-c2ncon2)cc1F)S(=O)(=O)c1ccc(Cl)cc1 [Avagacestat] + O=C(c1cc(Cc2n[nH]c(=O)c3ccccc23)ccc1F)N1CCN(C(=O)C2CC2)CC1 [Olaparib] (partner 8 µM)
Procedure, shortened: as §1

| Cell Line | relative viability (Avagacestat + Trametinib; first compound 0.08 µM) | relative viability (Avagacestat + Trametinib; first compound 0.253 µM) | relative viability (Avagacestat + Trametinib; first compound 0.8 µM) | relative viability (Avagacestat + Trametinib; first compound 2.53 µM) | relative viability (Avagacestat + Trametinib; first compound 8 µM) | relative viability (Avagacestat + Lapatinib; first compound 0.08 µM) | relative viability (Avagacestat + Lapatinib; first compound 0.253 µM) | relative viability (Avagacestat + Lapatinib; first compound 0.8 µM) | relative viability (Avagacestat + Lapatinib; first compound 2.53 µM) | relative viability (Avagacestat + Lapatinib; first compound 8 µM) | relative viability (Avagacestat + Phenformin; first compound 0.08 µM) | relative viability (Avagacestat + Phenformin; first compound 0.253 µM) | relative viability (Avagacestat + Phenformin; first compound 0.8 µM) | relative viability (Avagacestat + Phenformin; first compound 2.53 µM) | relative viability (Avagacestat + Phenformin; first compound 8 µM) | relative viability (Avagacestat + Olaparib; first compound 0.08 µM) | relative viability (Avagacestat + Olaparib; first compound 0.253 µM) | relative viability (Avagacestat + Olaparib; first compound 0.8 µM) | relative viability (Avagacestat + Olaparib; first compound 2.53 µM) | relative viability (Avagacestat + Olaparib; first compound 8 µM) |
| --- | --- | --- | --- | --- | --- | --- | --- | --- | --- | --- | --- | --- | --- | --- | --- | --- | --- | --- | --- | --- |
| HCC-44 | 1.05 | 1.02 | 1.05 | 0.98 | 1.03 | 1.23 | 0.893 | 1.17 | 1.03 | 0.98 | 0.167 | 0.171 | 0.198 | 0.21 | 0.195 | 1.04 | 1.05 | 1.07 | 1.01 | 1 |
| EKVX | 0.468 | 0.39 | 0.348 | 0.303 | 0.298 | 0.227 | 0.208 | 0.226 | 0.186 | 0.184 | 0.234 | 0.259 | 0.278 | 0.256 | 0.229 | 1.04 | 0.926 | 0.918 | 0.73 | 0.769 |
| NCI-H522 | 0.748 | 0.74 | 0.734 | 0.72 | 0.795 |  |  |  |  |  | 0.71 | 0.59 | 0.669 | 0.641 | 0.649 | 0.566 | 0.715 | 0.656 | 0.691 | 0.621 |
| NCI-H1792 | 0.534 | 0.641 | 0.491 | 0.373 | 0.439 | 1.26 | 0.681 | 1.76 | 0.915 | 0.758 | 0.474 | 0.304 | 0.391 | 0.19 | 0.304 | 0.673 | 0.605 | 0.563 | 0.408 | 0.726 |
| NCI-H661 | 0.589 | 0.632 | 0.604 | 0.548 | 0.521 | 0.508 | 0.594 | 0.473 |  | 0.497 | 0.301 | 0.293 | 0.298 | 0.296 | 0.3 | 0.795 | 0.918 | 0.771 | 0.774 | 0.725 |
| LCLC-103H | 0.721 | 0.726 | 0.772 | 0.567 | 0.61 |  |  |  |  |  | 0.344 | 0.298 | 0.348 | 0.343 | 0.294 | 0.809 | 0.617 | 0.845 | 0.745 | 0.766 |
| NCI-H1793 | 0.52 | 0.536 | 0.459 | 0.519 | 0.479 | 1.13 | 0.648 | 1.08 | 0.627 | 0.769 | 0.411 | 0.291 | 0.337 | 0.284 | 0.319 | 1.04 | 0.601 | 1.11 | 0.827 | 0.616 |
| HOP-62 | 0.381 | 0.372 | 0.4 | 0.323 | 0.304 | 1.02 | 0.943 | 0.983 | 0.996 | 1.01 | 0.874 | 0.775 | 0.76 | 0.657 | 0.492 | 0.411 | 0.502 | 0.211 | 0.564 | 0.371 |

From the supplement of paper PMC10307832
